pIC50: −log10 of the molar value.

Series [1] concerns HCT-116. The series is described as follows: Cytotoxicity against human HCT116 cells overexpressing GST-Pi assessed as inhibition of cell viability at 10 uM after 48 hrs by MTT assay relative to control. It is filed as functional. Particulars: HCT-116, 48 h. A general note: Tetrazolium assays rely on reduction of a dye to a coloured formazan, in cell work by metabolically active cells.

The test system of another series is MDA-MB-231. The series is described as follows: Antiproliferative activity against human MDA-MB-231 cells after 48 hrs by MTT assay relative to control. It is filed as functional, cell-based. The settings on record: MDA-MB-231, 48 h.
In series [2] the test system is HCT-116. Put plainly: Antiproliferative activity against human HCT116 cells after 48 hrs by MTT assay relative to control. Format: functional, cell-based. Particulars: HCT-116, 48 h.
Another series deals with A549. The series is described as follows: Antiproliferative activity against human A549 cells after 48 hrs by MTT assay relative to control. Format: functional, cell-based. Particulars: A549, 48 h.
The next series deals with U2OS. Put plainly: Antiproliferative activity against human U2OS cells after 48 hrs by MTT assay relative to control. Format: functional, cell-based.
In a further series the test system is MCF-10A. The series is described as follows: Antiproliferative activity against human MCF10A cells after 48 hrs by MTT assay relative to control. It is filed as cell-based.
The nature of series [3]: Selectivity ratio of IC50 for human MCF10A cells to IC50 for human MDA-MB-231 cells. It is filed as toxicity. The settings on record: MCF10A cells versus MDA-MB-231 cells, read-out: Ratio IC50.
A short description of series [4]: Selectivity ratio of IC50 for human HCT116 cells to IC50 for human MDA-MB-231 cells. Format: functional.
Series [5] is described as follows: Selectivity ratio of IC50 for human A549 cells to IC50 for human MDA-MB-231 cells. Format: functional.
The nature of series [6]: Selectivity ratio of IC50 for human U2OS cells to IC50 for human MDA-MB-231 cells. Format: functional.
The subject of series [7] is HCT-116. Put plainly: Growth inhibition of human HCT116 cells at 5 uM after 24 hrs by MTT assay relative to control. It is filed as functional. The settings on record: HCT-116, 24 h, read-out: GI.
The subject of series [8] is HCT-116. The series is described as follows: Growth inhibition of human HCT116 cells at 5 uM after 24 hrs in presence of GST-Pi inhibitor etacrynic acid by MTT assay relative to control. It is filed as functional. Particulars: HCT-116, 24 h, read-out: GI.
The species entered for the next series is Homo sapiens. The series is described as follows: Inhibition of MDR in human MCF7/ADR cells assessed as potentiation of adriamycin-induced antiproliferative activity by measuring fold reduction in adriamycin IC50 at 10 uM after 48 hrs by MTT assay. Format: cell-based.
Series [9] deals with T1, Glutathione S-transferase P (Homo sapiens, UniProt P09211). Put plainly: Prodrug activation in human HCT116 cells assessed as GST-Pi-mediated NO release at 5 uM after 24 hrs in presence of NO scavenger carboxy-PTIO by nitrate reductase assay. It is filed as cell-based.
T1 sequence (P09211 whole entry): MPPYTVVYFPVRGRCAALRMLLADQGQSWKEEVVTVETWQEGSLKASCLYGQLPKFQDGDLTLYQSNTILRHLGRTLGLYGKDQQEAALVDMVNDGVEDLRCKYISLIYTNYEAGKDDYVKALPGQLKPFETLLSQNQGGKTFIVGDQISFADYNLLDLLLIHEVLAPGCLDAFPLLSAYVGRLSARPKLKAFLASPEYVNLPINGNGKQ
Series [10] has as its target T1, Glutathione S-transferase P. Put plainly: Prodrug activation in human HCT116 cells assessed as GST-Pi-mediated NO release at 5 uM after 24 hrs in presence of GST-Pi inhibitor etacrynic acid by nitrate reductase assay. Format: cell-based.
Series [11] in a line: Cytotoxicity against ADR-sensitive human MCF7 cells assessed as inhibition of cell viability at 10 uM after 48 hrs by MTT assay relative to control. Format: cell-based. Particulars: read-out: INH.
A further series has as its system MCF7. The series is described as follows: Cytotoxicity against ADR-sensitive human MCF7 cells assessed as inhibition of cell viability after 48 hrs by MTT assay. Format: cell-based. The settings on record: MCF7, 48 h.
The target of series [12] is T1, Glutathione S-transferase P. The series is described as follows: Prodrug activation in human HCT116 cells assessed as GST-Pi-mediated NO release at 5 uM after 24 hrs by nitrate reductase assay. Format: cell-based.
For series [13], the system named is HCT-116. Put plainly: Growth inhibition of human HCT116 cells at 5 uM after 24 hrs in presence of NO scavenger carboxy-PTIO by MTT assay relative to control. Particulars: HCT-116, 24 h, read-out: GI. Format: functional.
The nature of series [14]: Glutathione reactivity in pH 7.4 PBS buffer assessed as parent compound remaining at 0.1 mM after 1 hr in presence of 2 mM GSH by HPLC analysis. Format: physicochemical. Particulars: PBS buffer with 2 mM glutathione (GSH), read-out: Stability.

Turning to `COc1ccc(C2CC(c3cccc(Oc4cc(O/N=[N+](\[O-])N5CCCCC5)c([N+](=O)[O-])cc4[N+](=O)[O-])c3)=NN2C(C)=O)cc1` (stereo unspecified), in the series on HCT-116 [1], the inhibition – broadly, the drop in the measured response relative to a control, in per cent – at 10 µM came to 80.4%. Also, the negative-log IC50 (pIC50) – broadly, the IC50 on a negative log10 scale, so that one unit is a factor of ten – with MDA-MB-231 is 5.25; in the series with HCT-116 [2], 5.38; with A549, 5.33; in the series on U2OS, 5.13; with MCF-10A, 4.33; in the series on MCF7 it was 4.56. Moreover, the selectivity ratio in [3] came out at 8.2. Besides, the “Ratio IC50” value is given as 0.7 in series [4], 1.5 in [5] and 1.7 in series [6]. For the same compound, the results for the inhibition of growth at 5 µM in the series with HCT-116 [7] and with HCT-116 [8] were 67.9% and 14.8%, respectively. Besides, in the series filed under Homo sapiens, the fold change (FC) was determined as 61.9. In addition, the Drug metabolism result in [9] and in [10] was “Metabolite_Notdetected” throughout. The cytotoxicity at 48 h, 10 µM in series [11] worked out at 15.1%.

Regarding `COc1cc(C2CC(c3cccc(Oc4cc(O/N=[N+](\[O-])N5CCCCC5)c([N+](=O)[O-])cc4[N+](=O)[O-])c3)=NN2C(C)=O)cc(OC)c1OC` (stereo unspecified), the inhibition at 10 µM with HCT-116 [1] stood at 80.8%. Further, the pIC50 with MDA-MB-231 was 6.03; in the series on HCT-116 [2], 5.97; in the series on A549 it was 5.94; with U2OS it was 5.12; in the series on MCF-10A it was 4.98; in the series on MCF7, 4.75. Moreover, the selectivity ratio in series [3] is 11.2. Further, the figures for the “Ratio IC50” value in series [4], in series [5] and in series [6] were 1.1, 1.2 and 8.1, respectively. The inhibition of growth at 5 µM in the series on HCT-116 [7] turned out to be 74.9%; with HCT-116 [13], 7.1%. Further, the Drug metabolism entry in [12] is given as “Metabolite_Detected”; in [9], “Metabolite_Notdetected”; in series [10] it was “Metabolite_Notdetected”. For the same compound, in the series filed under Homo sapiens, the fold change (FC) was determined as 75.3. Besides, the remaining at 1 h, 100 µM in series [14] was found to be 80%. Moreover, in series [11], the cytotoxicity at 48 h, 10 µM amounted to 26.4%.

Values taken from ChEMBL document CHEMBL4138232, “O2-(2,4-dinitrophenyl)diazeniumdiolates derivatives: Design, synthesis, cytotoxic evaluation and reversing MDR in MCF-7/ADR cells” (Eur J Med Chem, 2018).
